Experimental findings from patent US20140296968A1, “IMPLANTABLE VASCULAR STENT” (Translumina GmbH, priority 2011, published 2014) are described below.

A short description of this series: release of rapamycin in vivo.

In the case of `CO[C@H]1C[C@@H]2CC[C@@H](C)[C@@](O)(O2)C(=O)C(=O)N2CCCC[C@H]2C(=O)O[C@H]([C@H](C)C[C@@H]2CC[C@@H](O)[C@H](OC)C2)CC(=O)[C@H](C)/C=C(\C)[C@@H](O)[C@@H](OC)C(=O)[C@H](C)C[C@H](C)/C=C/C=C/C=C/1C` [rapamycin], the “duration of the release of rapamycin” value is listed as 4 to 6 weeks.
